Patent US20210069145A1, “COMPOSITIONS AND METHODS FOR REDUCING A FATTY ACID DESATURATION INDEX IN A SUBJECT IN NEED THEREOF” (Amarin Pharmaceuticals Ireland Limited, priority 2013, published 2021)

Tested on: fatty acid desaturation index (FADI), RBCs
Assay: Fatty acid desaturation index (FADI) ratios in red blood cells, 12-week placebo-controlled study
Assay type: in vivo, human
Details: 4 g/day, 12 weeks, placebo-adjusted, from baseline
Protocol: A multi-center, placebo-controlled, randomized, double-blind, 12-week study was performed to evaluate the efficacy and safety of >96% E-EPA in patients with fasting triglyceride levels ≥200 mg/dl and <500 mg/dl despite statin therapy (the mean of two qualifying entry values needed to be ≥185 mg/dl and at least one of the values needed to be ≥200 mg/dl). The primary objective of the study was to determine the efficacy of >96% E-EPA 2 g daily and 4 g daily, compared to placebo, in lowering fasting TG levels in patients with high risk for cardiovascular disease and with fasting TG levels ≥200 mg/dl and <500 mg/dl, despite treatment to LDL-C goal on statin therapy.
The population for this study was men and women >18 years of age with a body mass index ≤45 kg/m^2 with fasting TG levels greater than or equal to 200 mg/dl and less than 500 mg/dl and on a stable does of statin therapy (with or without ezetimibe). The statin was atorvostatin, rosuvastatin or simvastatin. The dose of statin must have been stable for ≥4 weeks prior to the LDL-C/TG baseline qualifying measurement for randomization. The statin dose was optimized such that the patients are at their LDL-C goal at the LDL-C/TG baseline qualifying measurements. The same statin at the same dose was continued until the study ended. […]
The primary efficacy variable for the double-blind treatment period was percent change in TG from baseline to Week 12 endpoint. The secondary efficacy variables for the double-blind treatment period included the following: • Percent changes in total cholesterol (TC), high-density lipoprotein cholesterol (HDL-C), LDL-C, calculated non-HDL-C, and very low-density lipoprotein cholesterol (VLDL-C) from baseline to Week 12 endpoint; • Percent change in very low-density lipoprotein TG from baseline to Week 12; • Percent changes in apolipoprotein A-I (apo A-I), apolipoprotein B (apo B), and apo A-I/apo B ratio from baseline to Week 12; • Percent changes in lipoprotein(a) from baseline to Week 12; • Percent changes in LDL particle number and size, measured by nuclear magnetic resonance, from baseline to Week 12; • Percent change in remnant-like particle cholesterol from baseline to Week 12; • Percent change in oxidized LDL from baseline to Week 12; • Changes in FPG and HbA1c from baseline to Week 12; • Change in insulin resistance, as assessed by the homeostasis model index insulin resistance, from baseline to Week 12; • Percent change in lipoprotein associated phospholipase A2 (Lp-PLA2) from baseline to Week 12; • Change in intracellular adhesion molecule-1 from baseline to Week 12; • Change in interleukin-2 from baseline to Week 12; • Change in plasminogen activator inhibitor-1 from baseline to Week 12. […]

[1] = listed as Ethyl Eicosapentaenoate

`CC/C=C\C/C=C\C/C=C\C/C=C\C/C=C\CCCC(=O)OCC` [ethyl eicosapentaenoate, all-cis eicosa-5,8,11,14,17-pentaenoic acid ethyl ester] was tested, and the “FADI-16 (Palmitoleic acid/Palmitic acid, C16:1/C16:0) % Change, RBCs” value was “significantly reduced”, the “FADI-18 (Oleic acid/Stearic Acid, C18:1/C18:0) % Change, RBCs” value was “significantly reduced” and the “FADI-16 (Palmitoleic acid/Palmitic acid, C16:1/C16:0) % Change, RBCs” value [1] was −15.7%. The “FADI-18 (Oleic acid/Stearic Acid, C18:1/C18:0) % Change, RBCs” value [1] was −3.1%.
